Laboratory results taken from patent US6737383B1, “Herbicidal oxadiazolidines” (priority 1999, dated 2004).

Experiments:
[1] = system: blackgrass; assay: Test B pre/postemergence blackgrass; format: in vivo, Alopecurus myosuroides
Method in brief: (§1)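 Test chemicals in a non-phytotoxic solvent mixture with surfactant were sprayed preemergence onto planted seeds and postemergence onto plants 2 to 18 cm tall (1- to 4-leaf stage). After twelve to sixteen days in a greenhouse, injury was visually rated against untreated controls from 0 (no effect) to 10 (complete control).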

[2] = system: wheat; assay: Test B pre/postemergence wheat; format: in vivo, Triticum aestivum
Method in brief: as §1

[3] = system: bedstraw; assay: Test B pre/postemergence bedstraw; format: in vivo, Galium aparine
Method in brief: as §1

[4] = system: velvetleaf; assay: Test B pre/postemergence velvetleaf; format: in vivo, Abutilon theophrasti
Method in brief: as §1

[5] = Postemergence, Rate 125 g/ha, scale of 0 to 10 where 0 is no effect and 10 is complete control
[6] = Preemergence, Rate 62 g/ha, scale of 0 to 10 where 0 is no effect and 10 is complete control
[7] = Preemergence, Rate 125 g/ha, 0 is no effect, 10 is complete control
[8] = Preemergence, Rate 250 g/ha, scale 0 to 10, 0 is no effect, 10 is complete control
[9] = Preemergence, Rate 500 g/ha, scale 0 to 10 (0 no effect, 10 complete control)
[10] = Rate 62 g/ha, Postemergence, scale of 0 to 10 where 0 is no effect and 10 is complete control
[11] = Rate 250 g/ha, Postemergence, scale 0 to 10, 0 is no effect, 10 is complete control
[12] = Rate 500 g/ha, Postemergence, scale 0 to 10
[13] = Preemergence, Rate 250 g/ha, scale of 0 to 10 where 0 is no effect and 10 is complete control
[14] = Preemergence, Rate 500 g/ha, scale of 0 to 10 where 0 is no effect and 10 is complete control
[15] = Rate 62 g/ha, Postemergence, scale 0 to 10 (0 no effect, 10 complete control)
[16] = Rate 125 g/ha, Postemergence, scale of 0 to 10 where 0 is no effect and 10 is complete control
[17] = Rate 250 g/ha, Postemergence, scale of 0 to 10 where 0 is no effect and 10 is complete control
[18] = Rate 500 g/ha, Postemergence, scale 0 to 10, 0 no effect, 10 complete control
[19] = Rate 125 g/ha, Postemergence, scale 0 to 10
[20] = Rate 125 g/ha, Preemergence, scale of 0 to 10 where 0 is no effect and 10 is complete control
[21] = Postemergence, Rate 250 g/ha, scale 0 to 10
[22] = Preemergence, Rate 125 g/ha, scale of 0 to 10 where 0 is no effect and 10 is complete control
[23] = Preemergence, Rate 500 g/ha, scale 0 to 10, 0 is no effect, 10 is complete control
[24] = Rate 125 g/ha, Postemergence, scale 0 to 10, 0 is no effect, 10 is complete control

For Cc1ccccc1-n1c(=O)on(C(=O)N(c2cccc(F)c2F)C(C)C)c1=O [Compound 171], the “Blackgrass plant response rating” value [1, 5] was 0, the “Blackgrass plant response rating” value [1, 6] was 0 and the “Blackgrass plant response rating (0 to 10 scale)” value [1, 7] was 0. For the same molecule, the “Blackgrass plant response rating” value [1, 8] was 0, the “Blackgrass plant response rating” value [1, 9] was 2 and the “Blackgrass plant response rating” value [1, 10] was 0. For the same molecule, the “Plant response rating, Blackgrass” value [1, 11] was 0, the “Blackgrass plant response rating” value [1, 12] was 0 and the “Wheat plant response rating” value [2, 6] was 0. The “Wheat plant response rating (0 to 10 scale)” value [2, 7] was 0, the “Wheat plant response rating” value [2, 8] was 0 and the “Wheat plant response rating” value [2, 9] was 0. The “Plant response rating, Wheat” value [2, 11] was 0, the “Wheat plant response rating” value [2, 12] was 0 and the “Bedstraw plant response rating” value [3, 5] was 7. The “Bedstraw plant response rating” value [3, 6] was 0, the “Bedstraw plant response rating (0 to 10 scale)” value [3, 7] was 0 and the “Bedstraw plant response rating” value [3, 8] was 0. The “Bedstraw plant response rating” value [3, 9] was 0, the “Plant response rating, Bedstraw” value [3, 11] was 8 and the “Velvetleaf plant response rating” value [4, 6] was 0. The “Velvetleaf plant response rating (0 to 10 scale)” value [4, 7] was 0, the “Velvetleaf plant response rating” value [4, 8] was 0 and the “Velvetleaf plant response rating” value [4, 9] was 0. For the same molecule, the “Plant response rating, Velvetleaf” value [4, 11] was 0 and the “Velvetleaf plant response rating” value [4, 12] was 3.

For CC(C)N(C(=O)n1oc(=O)n(Cc2nnsc2Cl)c1=O)c1ccc(F)cc1F [Compound 320], the “Blackgrass plant response rating” value [1, 6] was 0, the “Blackgrass plant response rating (0 to 10 scale)” value ([1]; Preemergence, Rate 125 g/ha) was 2 and the “Blackgrass plant response rating” value [1, 13] was 5. For the same molecule, the “Blackgrass plant response rating” value [1, 14] was 6, the “Blackgrass plant response rating” value [1, 15] was 0 and the “Blackgrass plant response rating” value [1, 16] was 0. For the same molecule, the “Plant response rating, Blackgrass” value [1, 17] was 0, the “Blackgrass plant response rating” value [1, 18] was 0 and the “Wheat plant response rating” value [2, 6] was 0. The “Wheat plant response rating (0 to 10 scale)” value ([2]; Preemergence, Rate 125 g/ha) was 0, the “Wheat plant response rating” value [2, 13] was 0 and the “Wheat plant response rating” value [2, 14] was 0. For the same molecule, the “Wheat plant response rating” value [2, 15] was 0, the “Wheat plant response rating” value [2, 16] was 0 and the “Plant response rating, Wheat” value [2, 17] was 0. For the same molecule, the “Bedstraw plant response rating” value [3, 6] was 0, the “Bedstraw plant response rating” value [3, 14] was 0 and the “Bedstraw plant response rating” value [3, 15] was 0. For the same molecule, the “Bedstraw plant response rating” value [3, 16] was 0, the “Velvetleaf plant response rating” value [4, 6] was 0 and the “Velvetleaf plant response rating (0 to 10 scale)” value ([4]; Preemergence, Rate 125 g/ha) was 0. The “Velvetleaf plant response rating” value [4, 13] was 0, the “Velvetleaf plant response rating” value [4, 14] was 0 and the “Velvetleaf plant response rating” value [4, 15] was 0. For the same molecule, the “Velvetleaf plant response rating” value [4, 16] was 0 and the “Plant response rating, Velvetleaf” value [4, 17] was 0.

In the case of Cc1ccccc1-n1c(=O)on(C(=O)N(c2ccc(C(C)C)cc2)C(C)C)c1=O [Compound 231], the “Blackgrass plant response rating” value [1, 6] is reported as 0, the “Blackgrass plant response rating” value [1, 13] is reported as 0 and the “Plant response rating, Blackgrass” value [1, 14] is reported as 0. The “Blackgrass plant response rating” value [1, 10] was 0, the “Blackgrass plant response rating” value [1, 19] was 0 and the “Blackgrass plant response rating” value [1, 20] was 0. For the same molecule, the “Plant response rating (0 to 10; 0 is no effect, 10 is complete control), Blackgrass” value ([1]; Rate 250 g/ha, Postemergence) was 0, the “Blackgrass plant response rating” value [1, 18] was 0 and the “Wheat plant response rating” value [2, 6] was 0. The “Wheat plant response rating” value [2, 13] was 0, the “Plant response rating, Wheat” value [2, 14] was 0 and the “Wheat plant response rating” value [2, 10] was 0. For the same molecule, the “Wheat plant response rating” value [2, 19] was 0, the “Wheat plant response rating” value [2, 20] was 0 and the “Plant response rating (0 to 10; 0 is no effect, 10 is complete control), Wheat” value ([2]; Rate 250 g/ha, Postemergence) was 0. For the same molecule, the “Wheat plant response rating” value [2, 18] was 0, the “Bedstraw plant response rating” value [3, 6] was 0 and the “Bedstraw plant response rating” value [3, 13] was 0. For the same molecule, the “Plant response rating, Bedstraw” value [3, 14] was 0, the “Bedstraw plant response rating” value [3, 10] was 0 and the “Bedstraw plant response rating” value [3, 19] was 0. The “Bedstraw plant response rating” value [3, 20] was 0, the “Plant response rating (0 to 10; 0 is no effect, 10 is complete control), Bedstraw” value ([3]; Rate 250 g/ha, Postemergence) was 0 and the “Bedstraw plant response rating” value [3, 18] was 0. The “Velvetleaf plant response rating” value [4, 6] was 0, the “Velvetleaf plant response rating” value [4, 13] was 0 and the “Plant response rating, Velvetleaf” value [4, 14] was 0. The “Velvetleaf plant response rating” value [4, 10] was 0, the “Velvetleaf plant response rating” value [4, 19] was 0 and the “Velvetleaf plant response rating” value [4, 20] was 0. For the same molecule, the “Plant response rating (0 to 10; 0 is no effect, 10 is complete control), Velvetleaf” value ([4]; Rate 250 g/ha, Postemergence) was 0 and the “Velvetleaf plant response rating” value [4, 18] was 0.

CC(C)N(C(=O)n1oc(=O)n(CO)c1=O)c1ccc(Cl)cc1 [Compound 457] was tested, and the “Blackgrass plant response rating” value [1, 21] was 0, the “Blackgrass plant response rating” value ([1]; Postemergence, Rate 500 g/ha, scale of 0 to 10 where 0 is no effect and 10 is complete control) was 0 and the “Plant response rating, Blackgrass” value [1, 6] was 0. For the same molecule, the “Plant response rating, Blackgrass” value [1, 22] was 0, the “Blackgrass plant response rating” value [1, 8] was 0 and the “Blackgrass plant response rating” value [1, 23] was 0. The “Blackgrass plant response rating” value [1, 15] was 0, the “Blackgrass plant response rating” value [1, 24] was 0 and the “Wheat plant response rating” value [2, 21] was 0. For the same molecule, the “Plant response rating, Wheat” value [2, 6] was 0, the “Plant response rating, Wheat” value [2, 22] was 0 and the “Wheat plant response rating” value [2, 8] was 0. The “Wheat plant response rating” value [2, 23] was 0, the “Wheat plant response rating” value [2, 15] was 0 and the “Wheat plant response rating” value [2, 24] was 0. The “Bedstraw plant response rating” value [3, 8] was 0, the “Bedstraw plant response rating” value [3, 23] was 0 and the “Bedstraw plant response rating” value [3, 15] was 0. For the same molecule, the “Bedstraw plant response rating” value [3, 24] was 0, the “Velvetleaf plant response rating” value [4, 21] was 0 and the “Plant response rating, Velvetleaf” value [4, 6] was 0. The “Plant response rating, Velvetleaf” value [4, 22] was 0, the “Velvetleaf plant response rating” value [4, 8] was 0 and the “Velvetleaf plant response rating” value [4, 23] was 0. The “Velvetleaf plant response rating” value [4, 15] was 0 and the “Velvetleaf plant response rating” value [4, 24] was 0.
